Reference: patent publication US20230357099A1, “PYRAZOLO [3,4-B] PYRIDINE-4-CARBOXAMIDE NITRIFICATION INHIBITOR” (EUROCHEM ANTWERPTEN, priority 2020, published 2023)
Like-named read-outs stand apart in the source and are kept apart here.

Columns and labels:
[1] = tested on: ABIL (ammonia-binding liquid inoculum), nitrifying microbial enrichment containing both AOA and AOB; experiment: Nitrification inhibition assay on ABIL (ammonium consumption); type: cell-based; conditions: 10 µM compound
[2] = tested on: Nitrososphaera viennensis; experiment: Nitrification inhibition assay on Nitrososphaera viennensis (nitrite, Griess); type: cell-based, Nitrososphaera viennensis EN76T; conditions: for activity at 2.5 µM: Nitrososphaera viennensis, 2.5 µM compound, structural variants outside formula (I), read-out: Relative nitrification (%) by Nitrososphaera viennensis treated with 2.5 µM compound; for N. viennensis - relative nitrification (%) at 0.5 µM: 0.5 µM compound; for N. viennensis - relative nitrification (%) at 0.5 µM / N. viennensis - relative nitrification (%) at 5 µM / N. viennensis - relative nitrification (%) at 25 µM: 0% = as strong as 100 µM PTIO, 100% = no inhibition; for N. viennensis - relative nitrification (%) at 5 µM: 5 µM compound; for N. viennensis - relative nitrification (%) at 25 µM: 25 µM compound
Method: Nitrite (NO2—) was measured using the Griess reagent (Product number: G4410, Griess reagent (modified), Sigma-Aldrich). Equal volumes of the sample or a diluted sample and the Griess reagent were mixed a transparent flat bottom multi-well plate and incubated in the dark at room temperature for 10 minutes. Absorbance values at 540 nm were measured spectrophotometrically (EnVision, Perkin Elmer®) and used to calculate the [NO2—] by use of a standard curve.
A liquid culture sample of Nitrososphaera viennensis EN76T was kindly supplied by prof. dr. Christa Schleper (University of Vienna). Cells were grown in fresh water medium (FWM) as described earlier by Tourna et al. (2011). All necessary materials were rinsed with 1 % HCl and washed at least 3 times with MilliQ water. FWM (pH 7.5 (KOH)) contained 17 mM NaCl, 3 mM MgCl2 × 2 H2O, 680 µM CaCl2 × 2 H2O, 1.47 mM KH2PO4 and 6.71 mM KCI. After autoclaving, successively 1 mL non-chelated trace element mixture (101 mM HCl, 488 µM H3BO3, 508 µM MnCl2 × 4 H2O, 803 µM CoCl2 × 6 H2O, 101 µM NiCl2 × 6 H2O, 12 µM CuCl2 × 2 H2O, 503 µM ZnSO4 × 7 H2O and 150 µM Na2MoO4 × 2 H2O), 1 mL Fe-NaEDTA (7.5 mM), 1 mL vitamin solution (20 mg/L biotin, 20 mg/L folic acid, 100 mg/L pyridoxine-HCl, 50 mg/L thiamine-HCl, 50 mg/L riboflavin, 50 mg/L nicotinic acid, 50 mg/L DL-pantothenic acid, 50 mg/L P-aminobenzoic acid, 2 g/L choline chloride and 10 mg/L vitamin B12), 2 mL NaHCO3 (1 M), 2 mL kanamycin (100 mg/mL), 2 mL carbenicillin (100 mg/mL), 3 mL NH4Cl (1 M), 10 mL HEPES buffer (1 M, pH 7.6) and 1 mL Na-pyruvate (0.1 M) were added aseptically. All stock-solutions were filter-sterilized, except the autoclaved non-chelated trace element mixture. Cultures were incubated aerobically at 42° C. without shaking in sterile 250-mL Erlenmeyer flasks or 30-mL cultivation tubes (Product number: 216-1290, Quickstart universal containers STERILIN®, VWR) filled with either 100 or 20 mL FWM and sealed with tape (Micropore™ Surgical Tape 1530-1, 3M™). Late-log phase cultures ([NO2-] ≥ 1 mM) were subcultivated by dilution (1:400) in fresh FWM.
7-day old 100 mL cultures grown in 250-mL Erlenmeyer flasks with a [NO2-] ≥ 1 mM were 5 times overconcentrated in fresh FWM by centrifugation (4000 rpm, 15 min, 5° C.) in 50 mL centrifuge tubes (Cat. No. 430829, CentriStar™ Conical Centrifuge Tubes, Corning®). Per batch, all the cultures were pooled in one sterile Schott bottle. Subsequently, 200 µl/well was dispensed at low pipetting speed in transparent flat bottom 96-well plates (Cat. No. 353072, Falcon® 96 Well Clear Microplate, Corning®) using 150 µl wide-bore tips (two steps of 100 µl) on a Tecan robot (Freedom EVO®, Tecan). 0.5 µl of 99.99 % DMSO (negative control - final concentration 0.25%) and 0.5 µl of 0.04 M PTIO (2-phenyl-4,4,5,5-tetramethylimidazoline-1-oxyl 3-oxide, positive control - final concentration 100 µM) were added manually to the first and last column respectively. Finally, 0.5 µl of candidate nitrification inhibitors (1 mM stock solutions in 99.99% DMSO - final concentration 2.5 µM) were added to the central wells using a pin tool on a Tecan robot (Freedom EVO®, Tecan). In between additions, the pins were washed in sequence with 99.5% DMSO, MilliQ water and 100% ethanol and air-dried. All plates were sealed with tape (Micropore™ Surgical Tape 1530-1, 3M™), stacked per 4 on top of a 96-well plate filled with 100 µl MilliQ per well and covered with aluminum foil. Position effects of the stacks within the incubator were considered. Plates were incubated at 42° C. without shaking. 24 h later, NO2— was measured spectrophotometrically at 540 nm (EnVision, Perkin Elmer®). […]

[3] = structural variants outside formula (I), read-out: Relative nitrification (%) by ABIL treated with 10 µM compound
[4] = 24 h, 24 h, 0% = as strong as 100 µM PTIO, 100% = no inhibition, read-out: ABIL - relative nitrification (%) at 10 µM
[5] = 24 h, 0% = as strong as 100 µM PTIO, 100% = no inhibition

| SMILES | activity at 10 µM [1, 3] | activity at 2.5 µM [2] | also measured |
| --- | --- | --- | --- |
| COc1ccc(OC)c(C(C)NC(=O)c2cnc3c(cnn3C(C)C)c2)c1 (stereo not drawn) [Example 39] | 97% | 100% | – |
| Cc1nc2cc(NC(=O)c3cnc4c(cnn4C(C)C)c3)ccc2o1 [Example 44] | 99% | 100% | – |
| COC(C)(C)c1noc(Cc2n[nH]c3ccccc23)n1 [Example 125] | 100% | 97% | – |
| Cc1n[nH]c2ncc(CNCCc3ccsc3)cc12 [Example 40] | 98% | 93% | – |
| CC(=O)NC(CC(=O)Nc1cnc2c(cnn2C(C)C)c1)c1ccc(Cl)cc1 (stereo not drawn) [Example 23] | 91% | 100% | – |
| Cc1nccc(Nc2ccc3[nH]ncc3c2)n1 [Example 115] | 98% | 96% | – |
| O=C(O)CC1CSCCN1C(=O)c1cccc2cn[nH]c12 (stereo not drawn) [Example 114] | 98% | 100% | – |
| CC(C)n1ncc2cc(C(=O)N(C)Cc3nc4ccccc4s3)cnc21 [Example 85] | 100% | 100% | – |
| CC(C)n1ncc2cc(NC(=O)C3(C)CC3(Cl)Cl)cnc21 (stereo not drawn) [Example 50] | 100% | 92% | – |
| Cc1nn(C)c2ncc(CNCCCN3CCc4ccccc43)cc12 [Example 37] | 97% | 100% | – |
| CC(C)n1ncc2cc(CNc3ccc4[nH]ncc4c3)cnc21 [Example 94] | 92% | 100% | – |
| CCC(C)n1ncc2c(C(=O)O)cc(C3CC3)nc21 (stereo not drawn) [Example 32] | 94% | 90% | – |
| Cc1nc2c(cnn2C(C)C)c(C)c1CCC(=O)NC12CC3CC(CC(C3)C1)C2 [Example 63] | 100% | 100% | – |
| CC(CNC(=O)c1cccc2cn[nH]c12)CC1(C)OCCO1 (stereo not drawn) [Example 143] | 100% | 100% | – |
| COc1ccccc1CN(C)C(=O)c1cc2cnn(C(C)C)c2nc1C [Example 93] | 100% | 100% | – |
| c1ccc(N2CCOCC2)c(CNc2ccc3[nH]ncc3c2)c1 [Example 105] | 94% | 100% | – |
| CC(CCc1ccco1)NC(=O)c1cnc2c(cnn2Cc2ccccc2)c1 (stereo not drawn) [Example 51] | 100% | 91% | – |
| CNS(=O)(=O)c1cccc(C(=O)Nc2cnc3c(c2)c(C)nn3C)c1 [Example 43] | 98% | 100% | – |
| Cc1nn(C)c2nc(C3CC3)cc(C(=O)N(C)CC(=O)Nc3ccc(Cl)c(Cl)c3)c12 [Example 17] | – | – | activity at 10 µM [1, 4]: 68% |
| O=C(NCc1ccc(F)cc1C(F)(F)F)c1cccc2cn[nH]c12 [Example 147] | 100% | 92% | – |
| c1cc(CNCCc2nc(C3CC3)cs2)c2[nH]ncc2c1 [Example 130] | 100% | 94% | – |
| CSCC(=O)Nc1ccc2[nH]ncc2c1 [Example 126] | 100% | 100% | – |
| CC(C)n1ncc2cc(NC(=O)CCC(=O)c3ccccc3)cnc21 [Example 68] | 100% | 100% | – |
| Cc1nc2c(cnn2C(C)C)cc1C(=O)N1CCSCC1 [Example 78] | 100% | 100% | – |

| SMILES | activity at 10 µM [1, 3] | activity at 2.5 µM [2] | also measured |
| --- | --- | --- | --- |
| N#Cc1nn(CN2CCSCC2)c2ccc(Cl)cc12 [Example 96] | 85% | 96% | – |
| CC(C)n1ncc2c(C(=O)NCCN(C)C)cc(C3CC3)nc21 [Example 15] | – | – | activity at 10 µM [1, 4]: 65% |
| CCc1nnc(NC(=O)c2cnc3c(cnn3C(C)C)c2)s1 [Example 24] | 91% | 100% | – |
| O=C(NCCCSc1ccccc1)c1n[nH]c2ccccc12 [Example 136] | 100% | 96% | – |
| CN(C(=O)Nc1ccc2c(cnn2C(F)F)c1)C1CCSC1 (stereo not drawn) [Example 159] | 100% | 91% | – |
| Cc1nn(C)c2ncc(CNCc3ccc(N4CCCC4)nc3)cc12 [Example 59] | 100% | 92% | – |
| O=C(NC1=NCCS1)c1n[nH]c2ccccc12 [Example 111] | 98% | 95% | – |
| Cc1nc2c(cnn2C(C)C)cc1C(=O)NC(C)C1CCCO1 (stereo not drawn) [Example 90] | 100% | 93% | – |
| COc1ccc(N2CC(C(=O)Nc3ccc4[nH]ncc4c3)CC2=O)cc1 (stereo not drawn) [Example 160] | 100% | 100% | – |
| O=C(Nc1cccc(/C=C/c2ccccn2)c1)c1n[nH]c2ccccc12 [Example 145] | 100% | 96% | – |
| CCNC(=O)c1cccc(NC(=O)c2n[nH]c3ccccc23)c1 [Example 122] | 100% | 95% | – |
| Cc1nn(C(C)(C)C)c2nc(C3CC3)cc(C(=O)NC(C)C)c12 [Example 12] | – | – | activity at 10 µM [1, 4]: 30% |
| Cc1nn(C)c2nc(C3CC3)cc(C(=O)NCCC(C)C)c12 [Example 16] | – | – | activity at 10 µM [1, 4]: 65% |
| CC(C)n1ncc2c(C(=O)Nc3nc4c(s3)CCC4)cc(C3CC3)nc21 [Example 7] | – | – | N. viennensis - relative nitrification (%) at 0.5 µM [2]: 85%; N. viennensis - relative nitrification (%) at 5 µM [2]: 7%; N. viennensis - relative nitrification (%) at 25 µM [2]: 2% |
| CC(C)c1cc(C(=O)NCC2CCCO2)c2cnn(C(C)C)c2n1 (stereo not drawn) [Example 4] | – | – | ABIL - relative nitrification (%) at 10 µM [1, 5]: 10% |
| Cc1nn(C(C)(C)C)c2nc(C3CC3)cc(C(=O)N(C)C)c12 [Example 11] | – | – | activity at 10 µM [1, 4]: 25% |
| CCC(C)NC(=O)c1cc(C(C)C)nc2c1cnn2C(C)C (stereo not drawn) [Example 14] | – | – | activity at 10 µM [1, 4]: 61% |
| COCCONC(=O)c1cc(C2CC2)nc2c1c(C)nn2C(C)(C)C [Example 6] | – | – | activity at 10 µM [1, 4]: 16% |
| CC(C)n1ncc2c(C(=O)NCCc3ccccn3)cc(C3CC3)nc21 [Example 10] | – | – | activity at 10 µM [1, 4]: 19% |
| CC(C)c1cc(C(=O)NCC2CCCO2)c2cnn(C(C)C)c2n1 (stereo not drawn) [Example 13] | – | – | ABIL - relative nitrification (%) at 10 µM [1, 5]: 49% |
| CCn1ncc2c(C(=O)NCC3CCCO3)cc(-c3ccccc3)nc21 (stereo not drawn) [Example 9] | – | – | N. viennensis - relative nitrification (%) at 0.5 µM [2]: 100%; N. viennensis - relative nitrification (%) at 5 µM [2]: 100%; N. viennensis - relative nitrification (%) at 25 µM [2]: 54% |
| Cc1nn(C)c2nc(-c3ccco3)cc(C(=O)N(C)CCOc3cccc(Cl)c3)c12 [Example 8] | – | – | N. viennensis - relative nitrification (%) at 0.5 µM [2]: 100%; N. viennensis - relative nitrification (%) at 5 µM [2]: 98%; N. viennensis - relative nitrification (%) at 25 µM [2]: 5% |
| CCCN(C)C(=O)c1cc(C2CC2)nc2c1cnn2C(C)C [Example 18] | – | – | activity at 10 µM [1, 4]: 69% |
| COCCNC(=O)c1cc(C2CC2)nc2c1cnn2C(C)C [Example 5] | – | – | activity at 10 µM [1, 4]: 11% |
